Data taken from ChEMBL document CHEMBL5291721, “A preclinical secondary pharmacology resource illuminates target-adverse drug reaction associations of marketed drugs” (Nat Commun, 2023).
Values joined by “and” are separate entries in the source; they are usually repeats but may differ in a detail not shown here. Equal entries are not always repeated.

Legend:
[1] = target: T1, Alpha-1A adrenergic receptor (Homo sapiens, UniProt P35348)
T1 sequence (P35348 whole entry): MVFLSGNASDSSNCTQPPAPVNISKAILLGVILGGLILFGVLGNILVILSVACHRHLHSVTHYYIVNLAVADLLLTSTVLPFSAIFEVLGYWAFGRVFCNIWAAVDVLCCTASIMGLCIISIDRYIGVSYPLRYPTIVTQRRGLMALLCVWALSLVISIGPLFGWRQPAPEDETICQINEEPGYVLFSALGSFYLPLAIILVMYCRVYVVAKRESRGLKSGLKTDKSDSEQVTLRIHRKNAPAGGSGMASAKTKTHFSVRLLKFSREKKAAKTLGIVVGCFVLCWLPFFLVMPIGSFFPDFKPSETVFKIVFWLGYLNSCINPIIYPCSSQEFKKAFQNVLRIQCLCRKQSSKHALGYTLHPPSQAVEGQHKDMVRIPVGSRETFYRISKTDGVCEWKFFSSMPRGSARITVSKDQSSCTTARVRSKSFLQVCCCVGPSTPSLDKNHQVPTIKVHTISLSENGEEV

[2] = target: T2, Muscarinic acetylcholine receptor M1 (Homo sapiens, UniProt P11229); type: functional
T2 sequence (P11229 whole entry): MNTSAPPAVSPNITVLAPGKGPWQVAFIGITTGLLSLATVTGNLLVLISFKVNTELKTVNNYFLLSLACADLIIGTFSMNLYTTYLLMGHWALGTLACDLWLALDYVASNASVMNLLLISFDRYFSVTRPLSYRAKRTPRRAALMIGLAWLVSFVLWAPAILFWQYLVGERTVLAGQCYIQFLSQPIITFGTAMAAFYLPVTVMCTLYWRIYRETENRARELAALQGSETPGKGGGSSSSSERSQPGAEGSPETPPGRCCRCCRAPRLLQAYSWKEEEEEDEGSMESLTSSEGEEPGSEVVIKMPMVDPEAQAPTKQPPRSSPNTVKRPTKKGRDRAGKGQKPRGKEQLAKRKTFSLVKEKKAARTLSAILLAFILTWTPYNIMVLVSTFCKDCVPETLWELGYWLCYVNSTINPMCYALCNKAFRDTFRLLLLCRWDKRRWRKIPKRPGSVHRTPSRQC

[3] = target: T3, Muscarinic acetylcholine receptor M2 (Homo sapiens, UniProt P08172); type: functional, cell-based
T3 sequence (P08172 whole entry): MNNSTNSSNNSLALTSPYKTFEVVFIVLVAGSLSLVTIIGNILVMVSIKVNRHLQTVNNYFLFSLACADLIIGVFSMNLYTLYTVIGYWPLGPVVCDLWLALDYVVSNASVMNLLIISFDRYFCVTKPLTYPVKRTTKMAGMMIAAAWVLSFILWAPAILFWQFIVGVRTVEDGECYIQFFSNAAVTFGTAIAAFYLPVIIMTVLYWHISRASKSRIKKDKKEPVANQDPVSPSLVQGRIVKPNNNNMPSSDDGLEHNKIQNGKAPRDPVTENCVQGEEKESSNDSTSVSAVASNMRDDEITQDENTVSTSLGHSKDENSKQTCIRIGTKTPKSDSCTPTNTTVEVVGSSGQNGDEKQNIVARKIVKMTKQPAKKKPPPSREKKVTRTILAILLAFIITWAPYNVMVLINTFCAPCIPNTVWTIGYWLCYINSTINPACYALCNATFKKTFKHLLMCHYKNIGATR

Estrogen receptor = target: T4, Estrogen receptor (Homo sapiens, UniProt P03372)
T4 sequence (P03372 whole entry): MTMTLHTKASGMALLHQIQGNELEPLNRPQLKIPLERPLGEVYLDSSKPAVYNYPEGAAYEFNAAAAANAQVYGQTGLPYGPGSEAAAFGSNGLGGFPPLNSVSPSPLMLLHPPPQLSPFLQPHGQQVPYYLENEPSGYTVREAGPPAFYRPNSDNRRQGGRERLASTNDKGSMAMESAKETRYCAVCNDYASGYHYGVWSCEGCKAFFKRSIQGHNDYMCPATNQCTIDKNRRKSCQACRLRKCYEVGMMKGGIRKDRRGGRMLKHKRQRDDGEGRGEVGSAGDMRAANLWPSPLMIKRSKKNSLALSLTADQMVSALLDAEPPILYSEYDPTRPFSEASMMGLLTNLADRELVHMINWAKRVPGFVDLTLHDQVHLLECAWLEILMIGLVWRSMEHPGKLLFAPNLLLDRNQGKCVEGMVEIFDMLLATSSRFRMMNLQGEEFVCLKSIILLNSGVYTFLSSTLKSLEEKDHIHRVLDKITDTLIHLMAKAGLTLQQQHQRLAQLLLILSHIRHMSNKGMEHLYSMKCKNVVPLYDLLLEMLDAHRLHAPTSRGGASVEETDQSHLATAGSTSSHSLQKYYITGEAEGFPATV

[4] = target: 5-hydroxytryptamine receptor 2A (Homo sapiens, UniProt P28223); type: functional, cell-based
Sequence of 5-hydroxytryptamine receptor 2A (P28223 whole entry): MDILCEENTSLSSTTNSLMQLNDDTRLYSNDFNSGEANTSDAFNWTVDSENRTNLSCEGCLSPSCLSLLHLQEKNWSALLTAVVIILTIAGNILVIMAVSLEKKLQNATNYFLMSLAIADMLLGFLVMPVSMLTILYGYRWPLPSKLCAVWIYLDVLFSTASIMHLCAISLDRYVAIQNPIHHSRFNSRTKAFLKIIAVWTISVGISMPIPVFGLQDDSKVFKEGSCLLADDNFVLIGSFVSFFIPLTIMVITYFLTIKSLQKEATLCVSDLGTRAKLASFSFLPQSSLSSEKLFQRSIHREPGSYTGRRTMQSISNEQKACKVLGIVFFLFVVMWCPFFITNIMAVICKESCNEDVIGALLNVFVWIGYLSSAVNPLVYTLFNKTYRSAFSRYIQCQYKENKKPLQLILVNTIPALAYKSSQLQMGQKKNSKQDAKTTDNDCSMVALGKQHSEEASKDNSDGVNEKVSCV

Mu-type opioid receptor = Mu-type opioid receptor (Homo sapiens, UniProt P35372)
Sequence of Mu-type opioid receptor (P35372 whole entry): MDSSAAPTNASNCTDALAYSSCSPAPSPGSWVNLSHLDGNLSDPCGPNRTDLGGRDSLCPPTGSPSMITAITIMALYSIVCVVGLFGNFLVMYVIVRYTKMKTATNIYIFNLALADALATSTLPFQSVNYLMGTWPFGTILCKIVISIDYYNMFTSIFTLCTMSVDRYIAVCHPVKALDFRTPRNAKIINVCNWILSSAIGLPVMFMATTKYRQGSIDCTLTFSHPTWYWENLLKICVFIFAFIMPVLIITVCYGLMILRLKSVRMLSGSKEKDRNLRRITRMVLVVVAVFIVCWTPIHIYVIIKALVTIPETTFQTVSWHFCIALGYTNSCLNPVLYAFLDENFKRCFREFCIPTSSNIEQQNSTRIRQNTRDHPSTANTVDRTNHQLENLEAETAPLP

[5] = target: T5, Alpha-2A adrenergic receptor (Homo sapiens, UniProt P08913)
T5 sequence (P08913 whole entry): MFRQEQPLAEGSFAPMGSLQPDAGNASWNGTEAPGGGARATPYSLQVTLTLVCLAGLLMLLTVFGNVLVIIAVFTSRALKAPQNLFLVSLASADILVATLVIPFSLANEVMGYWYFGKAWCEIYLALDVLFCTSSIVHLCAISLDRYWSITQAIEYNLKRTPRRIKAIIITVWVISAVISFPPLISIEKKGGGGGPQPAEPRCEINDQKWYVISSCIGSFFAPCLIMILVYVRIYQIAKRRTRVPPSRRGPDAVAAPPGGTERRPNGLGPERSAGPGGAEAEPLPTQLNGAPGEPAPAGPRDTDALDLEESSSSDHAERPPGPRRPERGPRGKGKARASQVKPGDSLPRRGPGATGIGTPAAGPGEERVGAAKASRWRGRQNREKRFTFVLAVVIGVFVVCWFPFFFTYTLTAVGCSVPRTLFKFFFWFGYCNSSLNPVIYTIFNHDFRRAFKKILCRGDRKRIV

D(3) dopamine receptor = D(3) dopamine receptor (Homo sapiens, UniProt P35462)
Sequence of D(3) dopamine receptor (P35462 whole entry): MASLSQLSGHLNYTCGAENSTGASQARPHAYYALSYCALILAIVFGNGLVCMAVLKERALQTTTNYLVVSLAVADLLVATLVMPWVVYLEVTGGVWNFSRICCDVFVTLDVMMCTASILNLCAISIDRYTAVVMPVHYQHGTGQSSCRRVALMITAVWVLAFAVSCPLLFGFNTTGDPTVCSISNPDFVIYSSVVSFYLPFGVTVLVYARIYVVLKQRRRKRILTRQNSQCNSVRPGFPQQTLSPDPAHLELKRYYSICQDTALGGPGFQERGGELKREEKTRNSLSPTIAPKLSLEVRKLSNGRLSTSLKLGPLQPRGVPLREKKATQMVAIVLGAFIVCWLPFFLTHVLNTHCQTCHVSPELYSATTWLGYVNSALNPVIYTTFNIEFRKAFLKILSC
Also: assay procedure not described here.

Row | Compound | AC50 [1] | AC50 [2] | AC50 [3] | AC50 (Estrogen receptor) | AC50 [4] | AC50 (Mu-type opioid receptor) | AC50 [5] | AC50 (D(3) dopamine receptor)
1 | CC(C)[C@H](N)C(=O)OCC(CO)OCn1cnc2c(=O)nc(N)[nH]c21 (stereo not given in full) [VALGANCICLOVIR] | > 30 µM | > 30 µM | > 30 µM | > 30 µM | > 30 µM |  |  | 
2 | Clc1ccc(C(Cn2ccnc2)OCc2ccsc2Cl)c(Cl)c1 (stereo not given) [TIOCONAZOLE] | 13.5 µM | > 30 µM | > 30 µM | > 10 µM | 19 µM |  |  | 
3 | CCC1(c2ccccc2)CCC(=O)NC1=O (stereo not given) [GLUTETHIMIDE] | > 10 µM | > 10 µM | > 10 µM | > 10 µM | > 30 µM | > 30 µM |  | 
4 | Nc1ncn([C@H]2C[C@H](O)[C@@H](CO)O2)c(=O)n1 [DECITABINE] | > 30 µM | > 30 µM | > 30 µM |  | > 30 µM |  |  | 
5 | O=[N+]([O-])c1ccc(O)c2ncccc12 [NITROXOLINE] |  | 8.5 µM | > 30 µM |  | > 30 µM |  | > 30 µM | 20.4 µM
6 | CCOC(=O)c1cncn1[C@H](C)c1ccccc1 [ETOMIDATE] | > 10 µM | > 10 µM | > 10 µM | > 10 µM | > 10 µM | > 30 µM |  | 
7 | CNCc1ccc(-c2[nH]c3cc(F)cc4c3c2CCNC4=O)cc1 [RUCAPARIB] | 12.3 µM | > 10 µM | > 10 µM | > 30 µM | > 10 µM | > 30 µM |  | 
8 | C[C@]12CCC(=O)C(O)=C1CC[C@@H]1[C@@H]2CC[C@]2(C)C(=O)CC[C@@H]12 [FORMESTANE] |  | > 30 µM | > 30 µM | > 30 µM | > 30 µM |  |  | 
9 | CCC(=O)O[C@H]1CC[C@H]2[C@@H]3CCC4=CC(=O)CC[C@]4(C)[C@H]3CC[C@]12C [TESTOSTERONE PROPIONATE] | > 10 µM | > 10 µM | > 10 µM | > 30 µM | > 30 µM | > 30 µM |  | 
10 | CC(C)(C)C(=O)OCC(=O)[C@H]1CC[C@H]2[C@@H]3CCC4=CC(=O)CC[C@]4(C)[C@H]3CC[C@]12C [DESOXYCORTICOSTERONE PIVALATE] | > 10 µM | > 10 µM | > 10 µM | > 30 µM | > 10 µM | > 30 µM |  | 
11 | C=CCNc1nc(NCC=C)nc(N2CCN(C(c3ccc(F)cc3)c3ccc(F)cc3)CC2)n1 [ALMITRINE] | > 30 µM | > 30 µM | > 30 µM | > 30 µM | > 30 µM |  |  | 
12 | Clc1ccc2c(N3CCN(CCCN4CCN(c5ccnc6cc(Cl)ccc56)CC4)CC3)ccnc2c1 [PIPERAQUINE] |  | 3.8 µM | > 30 µM | > 30 µM | > 30 µM |  |  | 
13 | CC(C)COCC(CN(Cc1ccccc1)c1ccccc1)N1CCCC1 (stereo not given) [BEPRIDIL] |  | 23 µM | > 30 µM | > 30 µM | 22 µM |  |  | 
14 | CC1OC2(CS1)CN1CCC2CC1 (stereo not given) [CEVIMELINE] | > 30 µM | > 30 µM |  | > 10 µM | > 10 µM | > 30 µM |  | 
15 | CCC(C)C1(CC)C(=O)NC(=O)NC1=O (stereo not given) [BUTABARBITAL] |  | > 30 µM | > 30 µM | > 30 µM | > 30 µM |  |  | 
16 | CC1(C)S[C@@H]2[C@H](NC(=O)[C@H](N)c3ccccc3)C(=O)N2[C@H]1C(=O)OCOC(=O)[C@@H]1N2C(=O)C[C@H]2S(=O)(=O)C1(C)C [SULTAMICILLIN] |  | > 30 µM | > 30 µM | > 30 µM | > 30 µM |  |  | 
17 | C[C@H](Cc1ccc(O)c(O)c1)[C@@H](C)Cc1ccc(O)c(O)c1 [MASOPROCOL] | 8.61 µM | > 10 µM and 29 µM and > 30 µM | > 30 µM | 0.749 µM | 13 µM and > 30 µM and 21 µM | > 30 µM |  | 
